Like-named read-outs stand apart in the source and are kept apart here.
Assays:
Assay type in all cases: cell-based
[1] = tested on: T47D breast cancer cells, sgNTC; test: CRISPR-engineered cancer cell line viability assay (XTT), T47D sgNTC; conditions: T47D cells with Cas9 and sgNTC, treated for three days, absolute IC50 at Y=0.5 viability, read-out: T47/D sgNTC
Experimental: (§1) T47D and HCC1954 breast cancer cells were cultured in RPMI 1640 medium containing 10% heat inactivated fetal bovine serum. Cell lines were infected with lentiviral construct(s) containing S. pyogenes Cas9 and sgRNA(s) targeting the gene(s) of interest. Infected cells were selected by antibiotic treatment. To assess cell viability in response to compound treatment, cells were seeded into 96-well plates. The next day, serial dilutions covering 10 concentrations of compound were added to the cells. Cells were treated for three days. Cell viability was determined by mitochondrial dehydrogenase activity (XTT assay, Cayman Chemical). To generate dose-response curves, data was fitted to a four-parameter Hill function and the absolute IC50 was determined at Y=0.5 viability.

[2] = tested on: T47D breast cancer cells, sgFUCA1; test: CRISPR-engineered cancer cell line viability assay (XTT), T47D/sgFUCA1; conditions: T47D cells with Cas9 and sgFUCA1, treated for three days, absolute IC50 at Y=0.5 viability
Experimental: as §1

[3] = tested on: senescent IMR90 primary lung fibroblasts; test: Cytotoxicity assay (XTT), senescent IMR90 cells; conditions: incubated with drug for 72 hours, read-out: IMR90 SEN
Experimental: Proliferating and senescent cells were maintained in T175 flasks under the conditions specified below, passaging upon reaching ˜90% confluency. Prior to use in cytotoxicity assays, cells were visually inspected under phase microscopy for contamination and health; if either contamination or significant cell debris was noted, cells were not used. Healthy cells were plated into the middle 60 wells of 96-well plates at a concentration of either 5,000 or 10,000 cells/well (for proliferating and senescent conditions, respectively). The outer 36 wells in each plate contained DPBS to both prevent desiccation of the interior wells and edge effects upon spectrometry readings. […] The XTT reagent undergoes an absorbance shift upon reduction through an NAD(P)H-dependent metabolic reaction, and the resulting shift can be used to quantify the viability of the remaining cells after drug treatment. Absorbance readings for each test article were taken once a suitable dynamic range was achieved (generally 0.7-1.4 absorbance units). […]
IMR90 primary lung fibroblasts were thawed into DMEM (high glucose, 4 mM L-glutamine, no sodium pyruvate) supplemented with 10% heat-inactivated fetal bovine serum and 1% penicillin-streptomycin antibiotic cocktail. […] Following this rest period, senescence induction was assessed by morphology, SA-β-gal activity, and EdU incorporation. […]

[4] = tested on: senescent A549 cells; test: Cytotoxicity assay (XTT), senescent A549 cells; conditions: A549 senescence induced with 25 μM gemcitabine, incubated with drug for 72 hours, read-out: A549 SEN
Experimental: Proliferating and senescent cells were maintained in T175 flasks under the conditions specified below, passaging upon reaching ˜90% confluency. Prior to use in cytotoxicity assays, cells were visually inspected under phase microscopy for contamination and health; if either contamination or significant cell debris was noted, cells were not used. Healthy cells were plated into the middle 60 wells of 96-well plates at a concentration of either 5,000 or 10,000 cells/well (for proliferating and senescent conditions, respectively). The outer 36 wells in each plate contained DPBS to both prevent desiccation of the interior wells and edge effects upon spectrometry readings. After seeding cells into the 96-well plates, they were given 24 hours to attach prior to drug addition. Drug was added in triplicate across 10 different concentrations, spanning roughly 4 Log 10 units. Plates were incubated with drug for 72 hours, at which point the drug-containing media was aspirated and replaced with XTT media. The XTT reagent undergoes an absorbance shift upon reduction through an NAD(P)H-dependent metabolic reaction, and the resulting shift can be used to quantify the viability of the remaining cells after drug treatment. Absorbance readings for each test article were taken once a suitable dynamic range was achieved (generally 0.7-1.4 absorbance units). The resulting data was then background corrected and logarithmized to produce concentration-response curves.
Wild type A549 cells were thawed into DMEM (high glucose, 4 mM L-glutamine, no sodium pyruvate) supplemented with 10% heat-inactivated fetal bovine serum and 1% penicillin-streptomycin antibiotic cocktail. Cells were cultured at 37 C, 5% CO2, and atmospheric oxygen. For senescence induction, only A549s at passage 20 or lower were used. Cells were grown to 60-70% confluency before aspirating media and replacing with fresh media containing 25 μM gemcitabine. Cells were cultured without refreshing media for 72 hours. After treatment, the drug-containing media was aspirated, cells were gently washed with 1×DPBS, and fresh, drug-free media was added to the flask, at which point the cells were allowed to rest for a further 72 hours. Following this rest period, senescence induction was assessed by morphology, SA-β-gal activity, and EdU incorporation. Note: senescence induction with gemcitabine can occasionally result in spontaneous re-entry into the cell cycle in A549s. For this reason, cells should be used in various assays within 14 days of induction to avoid outgrowth of non-senescent populations. In cytotoxicity assays, proliferating cells at passage 20 or younger were included as a comparator. […]

[5] = tested on: T47D breast cancer cells, sgGLB sgGALC; test: CRISPR-engineered cancer cell line viability assay (XTT), T47D/sgGLB sgGALC; conditions: Homo sapiens, 72 h, T47D cells with Cas9 and sgGLB sgGALC, treated for three days, absolute IC50 at Y=0.5 viability
Experimental: as §1

| Compound | IC50 ([1]; Homo sapiens, 72 h) [nM] | IC50 ([2]; Homo sapiens, 72 h) [nM] | IC50 ([4]; Homo sapiens) [nM] | further results |
| --- | --- | --- | --- | --- |
| CC(=O)O[C@H]1[C@H](C)O[C@@H](ONC(=O)/C=C/c2ccc(CN(CCc3c(C)[nH]c4ccccc34)C(=O)OCc3oc(=O)oc3C)cc2)C[C@@H]1OC(C)=O [Compound 105] | 53.1 | 2860 |  |  |
| Cc1[nH]c2ccccc2c1CCN(Cc1ccc(/C=C/C(=O)NO[C@H]2C[C@H](O)[C@@H](O)[C@H](C)O2)cc1)C(=O)OCc1oc(=O)oc1C [Compound 106] |  | 29200 |  |  |
| CC(=O)O[C@@H]1[C@H](C)O[C@@H](ONC(=O)c2cnc(N3CCC(CNCc4cn(C)c5ccccc45)CC3)nc2)C[C@@H]1OC(C)=O [Compound 107, (2S,3R,4S,6S)-3-(acetyloxy)-2-methyl-6-[({2-[4-({[(1-methyl-1H-indol-3-yl)methyl]amino}methyl)piperidin-1-yl]pyrimidin-5-yl}formamido)oxy]oxan-4-yl acetate] | 9.4 | 1010 |  |  |
| C/C(=C\C=C\CNCCc1c(C)[nH]c2ccccc12)C/C=C/C(=O)NOC1O[C@H](CO)[C@H](F)[C@H](O)[C@H]1O (some centres unmarked) [Compound 126] |  |  | > 30000 |  |
| (2E)-N-{[(3aR,4S,7aS)-4-methyl-2-oxo-hexahydro-[1,3]dioxolo[4,5-c]pyran-6-yl]oxy}-3-[4-({[2-(2-methyl-1H-indol-3-yl)ethyl]amino}methyl)phenyl]prop-2-enamide [Compound 109] |  |  |  | IC50 [1]: 330 nM; IC50 [2]: 1360 nM; IC50 ([3]; IMR90 senescence induced with 300 nM doxorubicin): 13500 nM; IC50 [4]: 2270 nM |

Second part, led by results:

| IC50 ([1]; Homo sapiens, 72 h) [nM] | IC50 ([2]; Homo sapiens, 72 h) [nM] | Compound | IC50 ([4]; Homo sapiens) [nM] | further results |
| --- | --- | --- | --- | --- |
| 942 | 8720 | C[C@@H]1O[C@@H](ONC(=O)c2cnc(N3CCC(CNCc4cn(C)c5ccccc45)CC3)nc2)C[C@H](O)[C@@H]1O [Compound 108, N-{[(2S,4S,5S,6S)-4,5-dihydroxy-6-methyloxan-2-yl]oxy}-2-[4-({[(1-methyl-1H-indol-3-yl)methyl]amino}methyl)piperidin-1-yl]pyrimidine-5-carboxamide] |  |  |
| 25.3 | 1110 | CC(=O)O[C@H]1[C@H](C)O[C@@H](ONC(=O)/C=C/c2ccc(CNCCc3c(C)[nH]c4ccccc34)cc2)C[C@@H]1OC(C)=O [Compound 111] | 243 | IC50 ([3]; Homo sapiens, IMR-90, IMR90 senescence induced with 300 nM doxorubicin): 3780 nM |
| 822 | 16400 | Cc1[nH]c2ccccc2c1CCNCc1ccc(/C=C/C(=O)NO[C@H]2C[C@H](O)[C@@H](O)[C@H](C)O2)cc1 [Compound 112] |  |  |
| > 30000 |  | Cc1[nH]c2ccccc2c1CCNCc1ccc(/C=C/C(=O)NO[C@@H]2O[C@H](CF)[C@H](O)[C@H](O)[C@H]2O)cc1 [Compound 122, (E)-N-[(2S,3R,4S,5R,6S)-6-(fluoromethyl)-3,4,5-trihydroxy-tetrahydropyran-2-yl]oxy-3-[4-[[2-(2-methyl-1H-indol-3-yl)ethylamino]methyl]phenyl]prop-2-enamide] |  | IC50 [5]: > 30000 nM |
| 9860 |  | Cc1[nH]c2ccccc2c1CCNCc1ccc(/C=C/C(=O)NO[C@@H]2O[C@H](CO)C[C@H](O)[C@H]2O)cc1 [Compound 124, (E)-N-[(2S,3R,4S,6S)-3,4-dihydroxy-6-(hydroxymethyl)tetrahydropyran-2-yl]oxy-3-[4-[[2-(2-methyl-1H-indol-3-yl)ethylamino]methyl]phenyl]prop-2-enamide] | 67000 | IC50 [5]: > 30000 nM |
